# Laboratory results taken from patent US9422340B2, “Macrocyclic compounds useful as inhibitors of histone deacetylases” (The Regents of the University of Colorado, A Body Corporate, priority 2010, dated 2016).
# Like-named read-outs stand apart in the source and are kept apart here.
# How the values were obtained:
# [1] = tested on: HCT116 cells; conditions: Ying et al. 2008b, read-out: GI50, antigrowth activity; cited from earlier work
# [2] = tested on: melanoma cell lines; conditions: series of melanoma cell lines; Bowers et al. 2008; cited from earlier work
# [3] = tested on: HDAC; conditions: read-out: IC50, HDAC inhibition in treated cells; cells treated with compound; Ying et al. 2008a; cited from earlier work
# [4] = tested on: HCT 116 cells; conditions: Zeng et al. 2010; cited from earlier work
# [5] = tested on: HCT-116; test: Cell growth inhibition, crystal violet cell viability assay; assay type: cell-based; conditions: Homo sapiens, read-out: Cell Growth Inhibition GI50, HCT-116
# Procedure: (§1) Comparative analysis of the cytotoxic effect of largazole in human cancer cell lines HCT116, SW480 and MDA-MB231. HME were used as control. 8,000 cells were plated in 96-well plates where rows 1 and 10 were treated with DMSO, row 2 had no cells to establish background levels, rows 3-9 contained decreasing concentrations of compound. Cells were incubated with largazole for 48 hours, followed by staining with crystal violet dye. The absorbance at 588 nm was measured using a Tecan Sail re II plate reader. Experiments were performed in replicates of six, and concentration-response curves were generated by nonlinear least square regression analysis of the data using GraphPad Prism (San Diego, Calif.). The growth inhibition (GI50) for each compound was defined as a concentration of drug leading to a 50% reduction in A588 compared with controls
# (§2) SW480, HCT116, and MDA-MB231 cell lines were purchased from the American Tissue Culture Collection. SW480 and MDA-MB231 cells were grown in Dulbecco's modified Eagle's medium supplemented with 10% fetal calf serum at 37° C. in a humidified 5% CO2 atmosphere. The HCT116 cell line was cultured in McCoy's 5a medium [ATCC; Cat. No. 30-2007] with 1.5 mM L-glutamine and 10% fetal bovine serum [ATCC; Cat. No. 30-2020]. HME cells (Clonetics, San Diego, Calif.; donor 4144) were cultured serum-free in Clonetics' recommended medium and supplements (52 μg/ml bovine pituitary extract, 0.5 μg/ml hydrocortisone, 0.01 μg/ml human epidermal growth factor, 5 μg/ml insulin, 50 μg/ml gentamicin and 50 ng/ml amphotericin-B).
# (§3) 8,000 cells from different cancers were plated in flat-bottomed 96-well microplates. (Background control wells lacking the cells but containing the same volume of media were included in each assay plate). 24 hours after seeding, new media was added. To assess the in vitro cytotoxicity, each compound was dissolved in DMSO and prepared immediately before the experiments and was diluted into complete medium before addition to cell cultures. Test compounds were then added to the culture medium for designated decreasing concentrations (600 nM to 10 nM). Cell viability was determined 48 hours later using crystal violet dye (Sigma-Aldrich), which was solubilized in ethanol, and absorbance was measured at 588 nm using a Tecan Sail re II plate reader. Experiments were performed in replicates of six, and concentration-response curves were generated by nonlinear least square regression analysis of the data using GraphPad Prism (San Diego, Calif.). The growth inhibition (GI50) for each compound was defined as a concentration of drug leading to a 50% reduction in A588 compared with controls.
# as §3, with “cancer or nontransformed cells” for “cancers”, “Safire” for “Sail re”, “concentration—response” for “concentration-response”
# [6] = tested on: MDA-MB231; test: as above; assay type: cell-based; conditions: Homo sapiens, read-out: Cell Growth Inhibition GI50, MDA-MB231
# Procedure: as §1, §2, §3
# as §3, with “cancer or nontransformed cells” for “cancers”, “Safire” for “Sail re”, “concentration—response” for “concentration-response”
# [7] = tested on: HME; test: Cell growth inhibition, crystal violet cell viability assay (control cells); assay type: cell-based; conditions: read-out: Cell Growth Inhibition GI50, HME
# Procedure: as §1
# SW480, HCT116, and MDA-MB231 cell lines were purchased from the American Tissue Culture Collection. SW480 and MDA-MB231 cells were grown in Dulbecco's modified Eagle's medium supplemented with 10% fetal calf serum at 37° C. in a humidified 5% CO2 atmosphere. The HCT116 cell line was cultured in McCoy's 5a medium [ATCC; Cat. No. 30-2007] with 1.5 mM L-glutamine and 10% fetal bovine serum [ATCC; Cat. No. 30-2020]. […]
# (§4) 8,000 cells from different cancers were plated in flat-bottomed 96-well microplates. […] Cell viability was determined 48 hours later using crystal violet dye (Sigma-Aldrich), which was solubilized in ethanol, and absorbance was measured at 588 nm using a Tecan Sail re II plate reader. […]
# as §4, with “cancer or nontransformed cells” for “cancers”, “Safire” for “Sail re”
# [8] = tested on: HCT116 cells; test: DNA microarray gene expression profiles; assay type: cell-based, human; conditions: SAHA (200 μM), Largazole (20 nM), Example 1 (20 nM)
# Procedure: FIG. 9A illustrates hierarchical clustering and heatmaps of changes in gene expression profiles in the HCT116 cells with indicated treatment. FIGS. 9B and 9C illustrate Venn diagrams showing unique and shared gene sets whose expression levels changed by more than 2 fold upon exposure to the indicated treatment at 6 hr (FIG. 9B) and 24 hr (FIG. 9C).
# Expression values files for each sample were generated using the Robust Multichip Average (RMA) algorithm. Differential expression was determined using the R software package limma to generate linear models and empirical Bayesian statistics. Genes were considered differentially expressed if the P value, adjusted for multiple testing using the Benjamini and Hochberg method, was ≦5% and the log-2 fold change was […].
# HCT116 cells were seeded in triplicate at approximately 60% confluency. […] Cells were incubated for 6 or 24 hours followed by a wash with phosphate-buffered saline. Total RNA was extracted using a RNeasy Mini RNA extraction kit (QIAGEN Inc., Valencia, Calif.) immediately after wash. Total RNA concentration was determined using a Lambda 800 UV/VIS spectrometer (PerkinElmer, Waltham, Mass.) and processed for labeling hybridization, wash, and scan at University of Colorado-Denver Health Sciences Center. Three GeneChip® Human Gene 1.0 ST (Affymetrix, Santa Clara, Calif.) arrays were used for each of the time points, cell types, and treatments for a total of 24 arrays. Expression values files for each sample were generated using the Robust Multichip Average (RMA) algorithm. Differential expression was determined using the R software package limma to generate linear models and empirical Bayesian statistics. Genes were considered differentially expressed if the P value, adjusted for multiple testing using the Benjamini and Hochberg method, was ≦5% and the log-2 fold change was […]. GeneSpring GX (Agilent, Santa Clara, Calif.) software was used for hierarchical clustering and generating heatmaps.
# [9] = tested on: acetylated histone H3 in HCT116 cells; test: Western blot of histone H3 hyperacetylation; assay type: cell-based, human; conditions: 8 hours, concentrations ranging from 1/μM to 100 nM
# Procedure: Cell extracts were separated via SDS-PAGE electrophoresis and the resulting bands were detected utilizing anti-acetyl-H3 antibodies. DMSO-treated cells serve as a negative control, while the expression of GAPDH was used to show equal loading. […] Cells were treated with the indicated compound for 8 hours with concentrations ranging from 1/μM to 100 nM and immunoblotted with anti-acetylhistone H3 antibody.
# For western blot analysis, total protein extracts were prepared by lysing cells in lysis buffer (50 mM Tris-Cl [pH 8.0], 5 mM EDTA, 150 mM NaCl, 1% NP-40, 0.1% SDS, and 1 mM phenylmethylsulfonyl fluoride). 50 μg of total soluble proteins were separated by SDS-PAGE. Proteins were transferred to nitrocellulose membrane and the membrane was blocked for 1 hour with 4% nonfat milk, followed by overnight incubation at 4° C. with primary antibodies against acetylated histone H3 (1:1000, Upstate, #06-599), Ezrin (1:10000, Sigma, E-8897), Glyceraldehyde 3-phosphate dehydrogenase (GAPDH; 1:20000, Santa Cruz, sc-47724), histone H3 (H3; 1:1000, Santa Cruz, sc-8654). Membranes were then incubated with peroxidase conjugated secondary antibodies for one hour at room temperature. Detection was performed using Super Signal WestDura. The expression of Ezrin and GAPDH was used as loading control.
# [10] = HCT-116, 48 hours, crystal violet, A588
# [11] = MDA-MB-231, MDA-MB231, 48 hours, crystal violet, A588
# [12] = HME control cells, 48 hours, crystal violet, A588
Compound,GI50 [4] [nM],"GI50 [5, 10] [nM]","GI50 [6, 11] [nM]","GI50 [7, 12] [nM]",# of Genes 2 Fold-Change in comparison to DMSO control ([8]; 6 hr),# of Genes 2 Fold-Change in comparison to DMSO control ([8]; 24 hr),further results
largazole thiol,,,,,,,GI50 [1]: 38 nM; IC50 [2]: 380 to 2600 nM; IC50 [3]: 209 nM
CCCCCCCC(=O)SCCC=CC1CC(=O)NCc2nc(cs2)C2=NC(C)(CS2)C(=O)NC(CC(C)C)C(=O)O1 (stereo not shown) [Leu 1],560,,,,,,
"CCCCCCCC(=O)SCC/C=C/[C@@H]1CC(=O)NCc2nc(co2)C(=O)NC(C)(C)C(=O)N[C@@H](C)C(=O)O1 [Example 4, S-(E)-4-((7S,10S)-4,4,7-trimethyl-2,5,8,12-tetraoxo-9,16-dioxa-3,6,13,18-tetraazabicyclo[13.2.1]octadeca-1(17),15(18)-dien-10-yl)but-3-enyl octanethioate]",,17,53 ± 3,≥ 600,,,
CCCCCCCC(=O)SCC/C=C/[C@@H]1CC(=O)NCc2nc(cs2)C2=N[C@@](C)(CS2)C(=O)N[C@@H](C(C)C)C(=O)O1 [Largazole],,,,,529,566,"GI50 ([5]; HCT-116, 48 h): 28 nM; GI50 ([6]; MDA-MB-231, 48 h): 71 ± 8 nM; GI50 ([7]; 48 h): ≥ 600 nM"
CCCCCCCC(=O)SCCC=CC1CC(=O)NCc2nc(cs2)C2=NC(C)(CS2)C(=O)NC(Cc2ccccc2)C(=O)O1 (stereo not shown) [Phe 1],260,,,,,,
"CCCCCCCC(=O)SCC/C=C/[C@@H]1CC(=O)NCc2nc(cs2)C(=O)NC(C)(C)C(=O)N[C@@H](C(C)C)C(=O)O1 [Example 1, S-(E)-4-((7S,10S)-7-isopropyl-4,4-dimethyl-2,5,8,12-tetraoxo-9-oxa-16-thia-3,6,13,18-tetraazabicyclo[13.2.1]octadeca-1(17),15(18)-dien-10-yl)but-3-enyl octanethioate]",,16 ± 2,53,≥ 600,421,174,"Deacetylase inhibition, dose response of H3 acetylation (FIG. 8B) [9]: slightly more potent deacetylase inhibitors than largazole (L) and SAHA"
